Measured values taken from the NIST ThermoML archive (doi:10.1016/j.jct.2012.12.006).
Values joined by “and” are separate entries in the source; they are usually repeats but may differ in a detail not shown here. Equal values may be shown once.

What was measured:
[1] = Molar enthalpy of transition or fusion; conditions: DSC
[2] = for vapor or sublimation pressure: Calculated from knudsen effusion weight loss; for Triple point temperature: DTA

NC(=O)c1ccccc1N [anthranilamide]
Crystal
Conditions	Molar enthalpy of transition or fusion [kcal/mol]	Triple point temperature [K]
[1]	5	–
[2]	–	384.4

[2], Crystal
Conditions	vapor or sublimation pressure
335.11 K	9.5e-05 kPa and 9.6e-05 kPa
337.17 K	0.000121 kPa and 0.00012 kPa
339.17 K	0.00015 kPa and 0.000149 kPa and 0.000152 kPa
341.1 K	0.00019 kPa and 0.000188 kPa and 0.000187 kPa
343.16 K	0.000237 kPa and 0.000232 kPa and 0.000236 kPa
345.16 K	0.00029 kPa and 0.000285 kPa and 0.000298 kPa
347.11 K	0.000359 kPa and 0.000357 kPa
349.16 K	0.000445 kPa and 0.000435 kPa and 0.000441 kPa
351.17 K	0.000539 kPa and 0.00053 kPa and 0.000545 kPa
353.12 K	0.000667 kPa and 0.000663 kPa
355.16 K	0.00082 kPa and 0.000826 kPa and 0.000806 kPa
357.16 K	0.000993 kPa and 0.000994 kPa

NC(=O)c1ccc(N)cc1 [4-aminobenzamide]
Crystal
Conditions	Molar enthalpy of transition or fusion [kcal/mol]	Triple point temperature [K]
[1]	7.17	–
[2]	–	457.6

[2], Crystal
Conditions	vapor or sublimation pressure
389.14 K	0.000125 kPa and 0.000124 kPa
391.15 K	0.000154 kPa and 0.000156 kPa and 0.000152 kPa
393.14 K	0.000185 kPa and 0.000182 kPa and 0.000187 kPa
395.15 K	0.000228 kPa and 0.000226 kPa
397.15 K	0.000271 kPa and 0.000279 kPa
399.14 K	0.00033 kPa and 0.000332 kPa and 0.000335 kPa
401.16 K	0.000407 kPa and 0.000411 kPa
403.15 K	0.000497 kPa and 0.000495 kPa and 0.000498 kPa
405.14 K	0.000597 kPa and 0.000591 kPa and 0.000602 kPa
407.19 K	0.000728 kPa and 0.000721 kPa
409.2 K	0.000873 kPa and 0.000868 kPa and 0.000883 kPa
411.15 K	0.001054 kPa and 0.001042 kPa and 0.001008 kPa

NC(=O)c1cccc(N)c1 [3-aminobenzamide]
Conditions	Molar enthalpy of transition or fusion, [1] [kcal/mol]	Triple point temperature, [2] [K]
Crystal 1	4.85	387.5
Crystal 2	0.789	352.4

[2], Crystal
Conditions	vapor or sublimation pressure
358.14 K	3.7e-05 kPa and 3.8e-05 kPa
360.19 K	4.8e-05 kPa and 4.7e-05 kPa
362.14 K	5.9e-05 kPa and 5.8e-05 kPa and 6e-05 kPa
364.14 K	7.5e-05 kPa
366.17 K	9.4e-05 kPa
368.15 K	0.000116 kPa and 0.000114 kPa and 0.000117 kPa
370.15 K	0.000144 kPa and 0.000146 kPa and 0.000143 kPa
372.19 K	0.000179 kPa and 0.000177 kPa and 0.000176 kPa
374.13 K	0.000218 kPa and 0.000216 kPa and 0.000222 kPa
376.15 K	0.000276 kPa and 0.000275 kPa and 0.000274 kPa
378.18 K	0.000342 kPa and 0.000338 kPa
380.14 K	0.00042 kPa and 0.000406 kPa and 0.000405 kPa
